ChEMBL document CHEMBL4431377, “Design, Synthesis, and Characterization of Sulfamide and Sulfamate Nucleotidomimetic Inhibitors of hHint1” (ACS Med Chem Lett, 2016)
pIC50, pKd: −log10 of the molar value.

Columns and labels:
[1] = target: T1, Adenosine 5'-monophosphoramidase HINT1 (Homo sapiens, UniProt P49773); assay: Binding affinity to His-tagged human full length HINT1 expressed in Rosetta2 pLysS cells by isothermal titration calorimetric assay
[2] = Aqueous solubility of the compound in aqueous buffer at 5 mM; type: physicochemical; conditions: 5000 µM
[3] = Aqueous solubility of the compound in aqueous buffer at 20 mM; type: physicochemical; conditions: 20000 µM
[4] = Stability of the compound in PBS buffer assessed as cyclonucleoside formation at 50 to 100 uM by HPLC analysis; type: physicochemical
[5] = target: T1, Adenosine 5'-monophosphoramidase HINT1; assay: Inhibition of His-tagged human full length HINT1 expressed in Rosetta2 pLysS cells using TrpAMP as substrate measured for 2 to 30 mins by fluorescence assay
[6] = target: T1, Adenosine 5'-monophosphoramidase HINT1; assay: Binding affinity to recombinant human HINT1 by isothermal titration calorimetric assay

T1 sequence (P49773 whole entry): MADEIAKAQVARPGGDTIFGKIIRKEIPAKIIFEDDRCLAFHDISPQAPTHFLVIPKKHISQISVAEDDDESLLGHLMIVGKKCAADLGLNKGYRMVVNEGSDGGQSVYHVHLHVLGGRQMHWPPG

| pKd [1] | solubility [2] | pIC50 [5] | inhibition [5] | SMILES | other results |
| --- | --- | --- | --- | --- | --- |
| 5.54 | Soluble | – | – | CCCC(=O)NS(=O)(=O)OC[C@H]1O[C@@H](n2cnc3c(=O)[nH]c(N)nc32)[C@H](O)[C@@H]1O.CCN(CC)CC | – |
| – | – | – | – | CCN(CC)CC.O=C(CCc1c[nH]c2ccccc12)NS(=O)(=O)OC[C@H]1O[C@@H](n2cnc3c2ncn2ccnc32)[C@H](O)[C@@H]1O | solubility [3]: Soluble; Stability [4]: Stable |
| – | – | 4.59 | Dose-dependent effect | Nc1nc2c(ncn2[C@@H]2O[C@H](COC(=O)NCCc3c[nH]c4ccccc34)[C@@H](O)[C@H]2O)c(=O)[nH]1 | pKd [6]: 5.44 |
| 6.04 | Soluble | – | – | CCN(CC)CC.Nc1nc2c(ncn2[C@@H]2O[C@H](CNS(=O)(=O)NC(=O)CCc3c[nH]c4ccccc34)[C@@H](O)[C@H]2O)c(=O)[nH]1 | – |
| 6.49 | – | 6.00 | Dose-dependent effect | Nc1ncnc2c1ncn2[C@@H]1O[C@H](CNS(=O)(=O)NC(=O)CCCC[C@@H]2SC[C@@H]3NC(=O)N[C@@H]32)[C@@H](O)[C@H]1O | – |
| 6.09 | Soluble | – | – | CCN(CC)CC.Nc1nc2c(ncn2[C@@H]2O[C@H](COS(=O)(=O)NC(=O)CCc3c[nH]c4ccccc34)[C@@H](O)[C@H]2O)c(=O)[nH]1 | – |
